Data taken from patent US6451804B1, “Heteroalkylamino-substituted bicyclic nitrogen heterocycles” (Syntex (U.S.A.) LLC, priority 1999, dated 2002).
Counter-ions that a name gives are not always drawn.

Row | SMILES | melting point [°C]
1 | Cc1ccccc1N1Cc2cnc(NC3CCN(C[C@@H](O)CO)CC3)nc2N(C)C1=O (as salt: hydrochloride) [Compound 2-14, (R)-7-[1-(2,3-dihydroxypropyl)piperidin-4-ylamino]-1-methyl-3-ortho-tolyl-3,4-dihydropyrimido[4,5-d]pyrimidin-2(1H)-one] | 195 to 208
2 | CCOCC(COCC)N1C(=O)N(c2ccccc2Cl)Cc2cnc(N[C@H](C)CO)nc21 (as salt: hydrochloride) [Compound 3-21, (R)-3-(2-chlorophenyl)-7-[(2-hydroxy-1-methylethyl)amino]-1-(2-ethoxy-1-ethoxymethylethyl)-3,4-dihydropyrimido[4,5-d]pyrimidin-2(1H)-one] | 169.7 to 175.1
3 | CN1C(=O)N(c2ccccc2Cl)Cc2cnc(NC(C)(C)C(O)CO)nc21 (stereo not drawn) (as salt: hydrochloride) [Compound 3-28, 3-(2-chlorophenyl)-7-(2,3-dihydroxy-1,1-dimethylpropylamino)-1-methyl-3,4-dihydropyrimido[4,5-d]pyrimidin-2(1H)-one] | 203.1 to 204.1
4 | Cc1ccccc1N1Cc2cnc(NC3CCN(CCO)CC3)nc2N(C)C1=O [Compound 2-13, 7-[1-(2-hydroxyethyl)-piperidin-4-ylamino]-1-methyl-3-ortho-tolyl-3,4-dihydropyrimido[4,5-d]pyrimidin-2(1H)-one] | 250 to 257
5 | CN1C(=O)N(c2ccccc2Cl)Cc2cnc(NC3CCC(=O)CC3)nc21 (as salt: hydrochloride) [Compound 3-46, 3-(2-chlorophenyl)-7-(4-oxo-cyclohexylamino)-1-methyl-3,4-dihydropyrimido[4,5-d]pyrimidin-2(1H)-one] | 233.4 to 236.3
6 | N#CCN1C(=O)N(c2ccccc2Cl)Cc2cnc(N[C@H]3CC[C@H](O)CC3)nc21 [Compound 3-55, 3-(2-chlorophenyl)-7-(trans-4-hydroxycyclohexylamino)-1-cyanomethyl-3,4-dihydropyrimido[4,5-d]-pyrimidin-2(1H)-one] | 130.8
7 | COC(=O)CN1C(=O)N(c2ccccc2Cl)Cc2cnc(N[C@H]3CC[C@H](O)CC3)nc21 [Compound 3-49, 3-(2-chlorophenyl)-7-(trans-4-hydroxycyclohexylamino)-1-methoxycarbonylmethyl-3,4-dihydropyrimido[4,5-d]pyrimidin-2(1H)-one] | 212 to 215
8 | Cc1ccccc1N1Cc2cnc(NC3CCN(CCC#N)CC3)nc2N(C)C1=O (as salt: hydrochloride) [Compound 2-15, 7-[1-(2-cyanoethyl)-piperidin-4-ylamino]-1-methyl-3-ortho-tolyl-3,4-dihydropyrimido[4,5-d]pyrimidin-2(1H)-one] | 195 to 208.5
9 | C[C@@H](CO)Nc1ncc2c(n1)N(C1CCNCC1)C(=O)N(c1ccccc1Cl)C2 (as salt: hydrochloride) | 244 to 248
10 | O=C(O)CN1CCC(CNc2ncc3c(n2)NC(=O)N(c2ccccc2Cl)C3)CC1 (as salt: hydrochloride) [Compound 2-24, 3-(2-chlorophenyl)-7-[(1-hydroxycarbonylmethylpiperidin-4-ylmethyl)amino]-3,4-dihydropyrimido[4,5-d]pyrimidin-2(1H)-one] | 215 to 219
11 | C[C@@H](O)[C@H](CO)Nc1ncc2c(n1)N(C)C(=O)N(c1ccccc1Cl)C2 (stereo in doubt) (as salt: hydrochloride) [Compound 1-13, 3-(2-chlorophenyl)-7-((1S,2R)-2-hydroxy-1-hydroxymethyl-propylamino)-1-methyl-3,4-dihydropyrimido-[4,5-d]pyrimidin-2(1H)-one] | 199 to 204
12 | Cc1ccccc1N1Cc2cnc(N[C@H](C)[C@@H](O)CO)nc2N(C)C1=O [Compound 3-23, 7-((R,R)-2,3-dihydroxy-1-methylpropylamino)-3-ortho-tolyl-1-methyl-3,4-dihydropyrimido[4,5-d]pyrimidin-2(1H)-one] | 119.8 to 121.8
13 | Cc1ccccc1N1Cc2cnc(NC3CCN(Cc4ccccc4)CC3)nc2N(C)C1=O (as salt: hydrochloride) [Compound 2-9, 7-(1-benzylpiperidin-4-ylamino)-1-methyl-3-ortho-tolyl-3,4-dihydropyrimido[4,5-d]pyrimidin-2(1H)-one] | 253 to 253.9
14 | O=C1N(c2ccccc2Cl)Cc2cnc(N[C@H]3CC[C@H](O)CC3)nc2N1CCO [Compound 3-56, 3-(2-chlorophenyl)-7-(trans-4-hydroxycyclohexylamino)-1-(2-hydroxyethyl)-3,4-dihydropyrimido[4,5-d]pyrimidin-2(1H)-one] | 96.6 to 122.8
15 | O=C1N(c2ccccc2Cl)Cc2cnc(N[C@H]3CC[C@H](O)CC3)nc2N1Cc1ccccc1 (as salt: hydrochloride) [Compound 3-48, 1-benzyl-3-(2-chlorophenyl)-7-(trans-4-hydroxycyclohexylamino)-3,4-dihydropyrimido[4,5-d]pyrimidin-2(1H)-one] | 218.5 to 221
16 | O=C(O)CN1C(=O)N(c2ccccc2Cl)Cc2cnc(N[C@H]3CC[C@H](O)CC3)nc21 [Compound 3-53, 3-(2-chlorophenyl)-7-(trans-4-hydroxycyclohexylamino)-1-hydroxycarbonylmethyl-3,4-dihydropyrimido[4,5-d]pyrimidin-2(1H)-one] | 230 to 240
17 | CN(C)C(=O)CN1CCC(CNc2ncc3c(n2)NC(=O)N(c2ccccc2Cl)C3)CC1 (as salt: hydrochloride) [Compound 2-19, 3-(2-chlorophenyl)-7-[(1-dimethylaminocarbonylmethylpiperidin-4-ylmethyl)amino]-3,4-dihydropyrimido[4,5-d]pyrimidin-2(1H)-one] | 210.2 to 214.4
18 | N#CCN1CCC(CNc2ncc3c(n2)NC(=O)N(c2ccccc2Cl)C3)CC1 (as salt: hydrochloride) [Compound 2-22, 3-(2-chlorophenyl)-7-[(1-cyanomethylpiperidin-4-ylmethyl)amino]-3,4-dihydropyrimido[4,5-d]pyrimidin-2(1H)-one] | 207.2 to 207.7
19 | NC(=O)CN1CCC(CNc2ncc3c(n2)NC(=O)N(c2ccccc2Cl)C3)CC1 (as salt: hydrochloride) [Compound 2-23, 3-(2-chlorophenyl)-7-[(1-aminocarbonylmethylpiperidin-4-ylmethyl)amino]-3,4-dihydropyrimido[4,5-d]pyrimidin-2(1H)-one] | 229.9 to 232.2
20 | CN1C(=O)N(c2ccccc2Cl)Cc2cnc(NC3(CO)CCCCC3)nc21 (as salt: hydrochloride) [Compound 3-43, 3-(2-chlorophenyl)-7-[(1-hydroxymethylcyclohexyl)amino]-1-methyl-3,4-dihydropyrimido[4,5-d]pyrimidin-2(1H)-one] | 203.7 to 207.8

Results, then the compound that gave them:

Row | melting point [°C] | SMILES
21 | 204 to 210 | O=C1CCC(Nc2ncc3c(n2)NC(=O)N(c2ccccc2Cl)C3)CC1 (as salt: hydrochloride) [Compound 4-23, 3-(2-chlorophenyl)-7-(4-oxo-cyclohexylamino)-3,4-dihydropyrimido[4,5-d]pyrimidin-2(1H)-one]
22 | > 300 | O=CO[C@H]1CC[C@H](Nc2ncc3c(n2)NC(=O)N(c2ccccc2Cl)C3)CC1 [Compound 4-15, 3-(2-chlorophenyl)-7-(trans-4-formyloxycyclohexylamino)-3,4-dihydropyrimido[4,5-d]pyrimidin-2(1H)-one]
23 | 292.8 to 293.2 | CS(=O)(=O)N[C@H]1CC[C@H](Nc2ncc3c(n2)NC(=O)N(c2ccccc2Cl)C3)CC1 [Compound 4-28, 3-(2-chlorophenyl)-7-[trans-4-(methanesulfonylamino)cyclohexylamino]-3,4-dihydropyrimido[4,5-d]pyrimidin-2(1H)-one]
24 | 267 to 267.6 | NC(=O)O[C@H]1CC[C@H](Nc2ncc3c(n2)NC(=O)N(c2ccccc2Cl)C3)CC1 (as salt: hydrochloride) [Compound 4-21, 7-(trans-4-carbamoyloxycyclohexylamino)-3-(2-chlorophenyl)-3,4-dihydropyrimido[4,5-d]pyrimidin-2(1H)-one]
25 | > 260 | COC(=O)O[C@H]1CC[C@H](Nc2ncc3c(n2)NC(=O)N(c2ccccc2Cl)C3)CC1 (as salt: hydrochloride) [Compound 4-20, 3-(2-chlorophenyl)-7-(trans-4-methoxycarbonyloxycyclohexylamino)-3,4-dihydropyrimido[4,5-d]pyrimidin-2(1H)-one]
26 | > 300 | CC(=O)O[C@H]1CC[C@H](Nc2ncc3c(n2)NC(=O)N(c2ccccc2Cl)C3)CC1 (as salt: hydrochloride) [Compound 4-13, 7-(trans-4-acetyloxycyclohexylamino)-3-(2-chlorophenyl)-3,4-dihydropyrimido[4,5-d]pyrimidin-2(1H)-one]
27 | 208.3 to 217.9 | O=C1Nc2nc(NCC3CCC(O)CC3)ncc2CN1c1ccccc1Cl (stereo not drawn) (as salt: hydrochloride) [Compound 4-17, 3-(2-chlorophenyl)-7-[(4-hydroxycyclohexylmethyl)amino]-3,4-dihydropyrimido[4,5-d]pyrimidin-2(1H)-one]
28 | 161 to 172 | Cc1ccccc1N1Cc2cnc(N[C@H](C)[C@@H](O)CO)nc2NC1=O (as salt: hydrochloride) [Compound 4-4, (R,R)-7-(2,3-dihydroxy-1-methylpropylamino)-3-ortho-tolyl-3,4-dihydropyrimido[4,5-d]pyrimidin-2(1H)-one]
29 | 173.6 to 189.7 | O=C1Nc2nc(NC3CCC4(CC3)OCCO4)ncc2CN1c1ccccc1Cl (as salt: hydrochloride) [Compound 4-24, 3-(2-chlorophenyl)-7-(1,4-dioxaspiro[4.5]dec-8-ylamino)-3,4-dihydropyrimido[4,5-d]pyrimidin-2(1H)-one]
30 | 269 to 271 | CNC(=O)O[C@H]1CC[C@H](Nc2ncc3c(n2)NC(=O)N(c2ccccc2Cl)C3)CC1 (as salt: hydrochloride) [Compound 4-22, 3-(2-chlorophenyl)-7-(trans-4-methylaminocarbonyloxycyclohexylamino)-3,4-dihydropyrimido[4,5-d]pyrimidin-2(1H)-one]
